Results as given in US11028051B2, “Tetrahydroquinoline-based bromodomain inhibitors” (St. Jude Children's Research Hospital, priority 2016, dated 2021).

Assays:
Experiment in all cases: competitive TR-FRET assay, BET-BD with acetylated peptide ligand
Assay type in all cases: binding
BRD2-BD2 = BRD2-BD2 (Homo sapiens (Human), UniProt P25440); conditions: for EC50: BRD2-BD2, Table 11 additional modifications, read-out: 2.2 EC50; for 2.1/2.2: ratio of BRD2-BD1 EC50 to BRD2-BD2 EC50 (selectivity)
Method: (§1) Inhibitor potency was determined using a competitive TR-FRET assay as detailed herein, measuring interaction of the respective BET-BD with an acetylated peptide ligand (Table 2).

BRD4-BD1 = BRD4-BD1 (Homo sapiens (Human), UniProt O60885); conditions: BRD4-BD1; Table 11 additional modifications; read-out: 4.1 EC50
Method: as §1

BRD2-BD1 = BRD2-BD1 (Homo sapiens (Human), UniProt P25440); conditions: BRD2-BD1; Table 11 additional modifications; read-out: 2.1 EC50
Method: as §1

BRD4-BD2 = BRD4-BD2 (Homo sapiens (Human), UniProt O60885); conditions: BRD4-BD2; Table 11 additional modifications; read-out: 4.2 EC50
Method: as §1

BRDT = BRDT (Homo sapiens, UniProt Q58F21); conditions: BRDT; Table 11 additional modifications; read-out: BRDT EC50
Method: as §1

BRD3-BD1 = BRD3-BD1 (Homo sapiens (Human), UniProt Q15059); conditions: BRD3-BD1; Table 11 additional modifications; read-out: 3.1 EC50
Method: as §1

BRD2-BD1, sequence (P25440 74-180): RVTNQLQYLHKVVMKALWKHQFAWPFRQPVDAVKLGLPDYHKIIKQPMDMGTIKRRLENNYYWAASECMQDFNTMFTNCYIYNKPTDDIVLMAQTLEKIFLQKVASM
BRD2-BD2, sequence (P25440 344-453): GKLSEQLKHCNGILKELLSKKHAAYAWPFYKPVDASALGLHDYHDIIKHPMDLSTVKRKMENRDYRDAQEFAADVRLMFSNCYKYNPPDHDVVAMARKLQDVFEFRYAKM
BRD3-BD1, sequence (Q15059 34-140): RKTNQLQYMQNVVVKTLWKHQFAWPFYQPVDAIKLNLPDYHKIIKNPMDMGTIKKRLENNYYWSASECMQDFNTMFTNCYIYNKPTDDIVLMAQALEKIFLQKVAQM

| Compound | EC50 (BRD2-BD2) [nM] | 2.1/2.2 (BRD2-BD2) | EC50 (BRD4-BD1) [µM] | EC50 (BRD2-BD1) [µM] | EC50 (BRD4-BD2) [µM] | EC50 (BRDT) [µM] | EC50 (BRD3-BD1) [µM] |
| --- | --- | --- | --- | --- | --- | --- | --- |
| COC(=O)c1cccc(N[C@@H]2C[C@H](C)N(C(C)=O)c3ccc(-c4cccc(NC(C)=O)c4)cc32)c1 [compound 7] | 80 | >1000 | 4.8 | 81 | 81 | 10 | 1.6 |
| CC(=O)Nc1cccc(-c2ccc3c(c2)[C@H](Nc2ccc(C(=O)O)cc2)C[C@H](C)N3C(C)=O)c1 [compound 120] | 130 | 3.1 | 13 | 33 | 0.17 |  | 4.9 |
| CC(=O)N1c2ccc(-c3ccc4cc[nH]c4c3)cc2[C@H](NC(=O)OC(C)C)C[C@@H]1C [compound 79] | 2700 | 2.6 | 8.2 | 7.1 | 8.8 |  | 2.2 |
| CC(=O)Nc1cccc(-c2ccc3c(c2)[C@H](NC(=O)c2ccccc2)C[C@H](C)N3C(C)=O)c1 [compound 62] | 77000 | 6.0 | 77 | 77 | 41 |  | 62 |
| CC(=O)N1c2ccc(-c3cccn(C)c3=O)cc2[C@H](NC(=O)OC(C)C)C[C@@H]1C [compound 87] | 13000 | 5.4 | 68 | 68 | 7.6 |  | 13 |
| CC(=O)Nc1cccc(-c2ccc3c(c2)[C@H](NC(=O)c2ccc(F)cc2)C[C@H](C)N3C(C)=O)c1 [compound 68] | 10000 | 6.9 | 80 | 70 | 20 |  | 41 |
| CC(=O)N1c2ccc(-c3c[nH]c4ccccc34)cc2[C@H](NC(=O)OC(C)C)C[C@@H]1C [compound 91] | 1100 | 0.032 | 0.86 | 1.3 | 37 | 4.9 | 1.1 |
| COC(=O)c1ccoc1-c1ccc2c(c1)[C@H](NC(=O)OC(C)C)C[C@H](C)N2C(C)=O [compound 82] | 1100 | 6.0 | 3.5 | 4 | 2 |  | 2.7 |
| CC(=O)N1c2ccc(-c3ccc(N(C)C)cc3)cc2[C@H](NC(=O)OC(C)C)C[C@@H]1C [compound 57] | 790 | 1.9 | 2.9 | 1.5 | 0.73 |  | 1.4 |
| CC(=O)N1c2ccc(-c3cccc(NC(=O)OC(C)(C)C)c3)cc2[C@H](NC(=O)OC(C)C)C[C@@H]1C [compound 84] | 460 | 2.5 | 2.1 | 2.5 | 3.5 |  | 0.99 |
| CC(=O)Nc1cccc(-c2ccc3c(c2)[C@H](NC(=O)c2ccc(C(F)(F)F)cc2)C[C@H](C)N3C(C)=O)c1 [compound 69] | 2700 | 28 | 74 | 75 | 75 |  | 75 |
| CC(=O)Nc1cccc(-c2ccc3c(c2)[C@H](NCCCc2ccccc2)C[C@H](C)N3C(C)=O)c1 [compound 70] | 69000 | 0.23 | 69 | 16 | 26 |  | 9.9 |
| CC(=O)N1c2ccc(C3=CCCO3)cc2[C@H](NC(=O)OC(C)C)C[C@@H]1C [compound 85] | 1200 | 3.6 | 8.5 | 13 | 12 |  | 4.8 |
| CC(=O)N1c2ccc(-c3cccc(CN)c3)cc2[C@H](NC(=O)OC(C)C)C[C@@H]1C [compound 88] | 470 | 11 | 2.9 | 2.1 | 0.65 |  | 1.4 |
| CC(=O)Nc1cccc(-c2ccc3c(c2)[C@H](NC(=O)c2ccc(Cl)cc2)C[C@H](C)N3C(C)=O)c1 [compound 72] | 51000 | 1.0 | 39 | 51 | 51 |  | 27 |
| CC(=O)Nc1ccc(N[C@@H]2C[C@H](C)N(C(C)=O)c3ccc(-c4cccc(NC(C)=O)c4)cc32)cc1 [compound 76] | 270 | 12 | 3.2 | 3.4 | 0.65 |  | 2.3 |
| CC(=O)N1c2ccc(-c3cc4ccccc4o3)cc2[C@H](NC(=O)OC(C)C)C[C@@H]1C [compound 86] | 27000 | 4.7 | 2.5 | 1.8 | 41 |  | 1 |

| Compound | EC50 (BRD2-BD2) [nM] | 2.1/2.2 (BRD2-BD2) | EC50 (BRD4-BD1) [µM] | EC50 (BRD2-BD1) [µM] | EC50 (BRD4-BD2) [µM] | EC50 (BRDT) [µM] | EC50 (BRD3-BD1) [µM] |
| --- | --- | --- | --- | --- | --- | --- | --- |
| CCC(=O)N[C@@H]1C[C@H](C)N(C(C)=O)c2ccc(-c3cccc(NC(C)=O)c3)cc21 [compound 67] | 18000 | 1.4 | 60 | 24 | 11 |  | 36 |
| CC(=O)Nc1cccc(-c2ccc3c(c2)[C@H](NCc2ccccc2)C[C@H](C)N3C(C)=O)c1 [compound 63] | 2400 | 1.0 | 13 | 13 | 7.6 |  | 6.9 |
| COc1ccc(C(=O)N[C@@H]2C[C@H](C)N(C(C)=O)c3ccc(-c4cccc(NC(C)=O)c4)cc32)cc1 [compound 66] | 36000 | 2.0 | 78 | 71 | 78 |  | 77 |
| CC(=O)N1c2ccc(-c3ccc4occc(=O)c4c3)cc2[C@H](NC(=O)OC(C)C)C[C@@H]1C [compound 80] | 1100 | 2.0 | 5.3 | 6.3 | 4 |  | 2.1 |
| CC(=O)N1c2ccc(-c3ccc4[nH]ccc4c3)cc2[C@H](NC(=O)OC(C)C)C[C@@H]1C [compound 81] | 4700 | 2.7 | 6.6 | 8 | 8.1 |  | 5.9 |
| CC(=O)Nc1cccc(-c2ccc3c(c2)[C@H](NC(=O)CC(C)C)C[C@H](C)N3C(C)=O)c1 [compound 73] | 83000 | 0.20 | 33 | 16 | 19 |  | 12 |
| CC(=O)Nc1cccc(-c2ccc3c(c2)[C@H](NC(=O)Cc2ccccc2)C[C@H](C)N3C(C)=O)c1 [compound 64] | 2000 | 4.1 | 7.3 | 8.1 | 10 |  | 11 |
| COc1ccc(-c2ccc3c(c2)[C@H](NC(=O)OC(C)C)C[C@H](C)N3C(C)=O)cc1 [compound 59] | 1200 | 2.9 | 3.5 | 3.6 | 2.1 |  | 1.9 |
| CC(=O)Nc1cccc(-c2ccc3c(c2)[C@H](NCc2ccc(C(F)(F)F)cc2)C[C@H](C)N3C(C)=O)c1 [compound 75] | 53000 | 1.0 | 53 | 53 | 53 |  | 36 |
| CC(=O)Nc1cccc(-c2ccc3c(c2)[C@H](NC(=O)CCc2ccccc2)C[C@H](C)N3C(C)=O)c1 [compound 74] | 17000 | 0.65 | 19 | 11 | 77 |  | 9.8 |
| CC(=O)N1c2ccc(-c3cccc(N)c3)cc2[C@H](NC(=O)OC(C)C)C[C@@H]1C [compound 2] | 110 | 6.6 | 1.88 | 0.73 | 0.64 |  | 0.25 |
| CC(=O)N1c2ccc(-c3cccc(CCO)c3)cc2[C@H](NC(=O)OC(C)C)C[C@@H]1C [compound 89] | 430 | 0.067 | 1.4 | 1.6 | 1.7 |  | 0.87 |
| CC(=O)N1c2ccc(-c3ccc4c(c3)OCCO4)cc2[C@H](NC(=O)OC(C)C)C[C@@H]1C [compound 77] | 9700 | 1.6 | 15 | 16 | 14 |  | 10 |
| CC(=O)N1c2ccc(-c3cccc([N+](=O)[O-])c3)cc2[C@H](NC(=O)OC(C)C)C[C@@H]1C [compound 58] | 1100 | 7.0 | > 96 | 7.7 | 6.2 |  | 5.2 |
| CC(=O)N1c2ccc(-c3cccc(-n4cccn4)c3)cc2[C@H](NC(=O)OC(C)C)C[C@@H]1C [compound 78] | 2900 | 2.6 | 6.1 | 7.7 | 6.7 |  | 4 |
| CCOC(=O)c1ccc(-c2ccc3c(c2)[C@H](NC(=O)OC(C)C)C[C@H](C)N3C(C)=O)o1 [compound 83] | 1600 | 1.7 | 6 | 7.5 | 3.4 |  | 4.3 |
| COc1cccc(-c2ccc3c(c2)[C@H](NC(=O)OC(C)C)C[C@H](C)N3C(C)=O)c1 [compound 3] | 850 | 6.8 | > 67.8 | 5.8 | > 67.8 |  | 2.3 |
